Reference: patent US20140303144A1, “COMPOUNDS AND METHODS OF TREATING HYPERTENSION” (Medivation Technologies, Inc., priority 2011, published 2014)

What was measured:
[1] = target: T1, human recombinant adrenergic α1D receptor (Homo sapiens, UniProt P25100); assay: Adrenergic α1D radioligand binding assay ([3H]Prazosin); conditions: for inhibition at 1 µM: 1 μM compound
T1 construct: expressed in transfected cells; host or cells: HEK-293 cells
T1 sequence (P25100 1-572): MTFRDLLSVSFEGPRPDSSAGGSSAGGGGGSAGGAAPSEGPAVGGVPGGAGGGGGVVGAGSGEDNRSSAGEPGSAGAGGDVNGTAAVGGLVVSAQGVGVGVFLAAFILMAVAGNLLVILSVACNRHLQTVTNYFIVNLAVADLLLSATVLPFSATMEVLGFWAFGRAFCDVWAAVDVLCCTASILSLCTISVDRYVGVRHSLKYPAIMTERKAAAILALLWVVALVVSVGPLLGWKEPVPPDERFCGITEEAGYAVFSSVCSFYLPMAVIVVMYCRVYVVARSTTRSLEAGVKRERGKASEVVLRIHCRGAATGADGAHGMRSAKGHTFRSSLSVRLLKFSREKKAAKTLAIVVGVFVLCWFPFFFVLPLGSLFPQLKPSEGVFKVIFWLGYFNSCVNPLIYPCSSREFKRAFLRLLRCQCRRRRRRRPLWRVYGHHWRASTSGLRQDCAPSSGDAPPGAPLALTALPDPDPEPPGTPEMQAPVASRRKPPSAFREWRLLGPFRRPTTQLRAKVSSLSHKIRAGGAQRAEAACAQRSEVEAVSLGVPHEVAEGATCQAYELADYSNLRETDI
Procedure: To evaluate in radioligand binding assays the activity of compounds of the invention, human recombinant adrenergic α1D receptor expressed in human embryonic kidney (HEK-293) cells (Kenny, B. et al, Br. J. Pharmacol. 115(6):981, 1995) in a 50 mM Tris-HCl buffer, pH 7.4, was used. Compounds were incubated with 0.6 nM [3H]Prazosin for 60 min at 25° C. Non-specific binding was estimated in the presence of 10 μM phentolamine. Receptor proteins were filtered and washed, the filters were then counted to determine [3H]Prazosin specifically bound. Compounds were screened at 1 μM or lower, using 1% DMSO as vehicle. Biochemical assay results are presented as the percent inhibition of specific binding in Tables B1A-B1D.

[2] = target: T2, human recombinant adrenergic α2B receptor (Homo sapiens, UniProt P18089); assay: Adrenergic α2B radioligand binding assay ([3H]Rauwolscine); conditions: for inhibition at 1 µM: 1 μM compound; for inhibition at 1 µM / inhibition at 0.03 µM / inhibition at 0.1 µM: read-out: Percentage inhibition of ligand binding, Adrenergic α2B; for inhibition at 0.03 µM: 0.03 μM compound; for inhibition at 0.1 µM / Percentage inhibition of ligand binding, Adrenergic α2B: 0.1 μM compound; for Percentage inhibition of ligand binding, Adrenergic α2B: 0.1 µM
T2 construct: expressed in transfected cells; host or cells: CHO-K1 cells
T2 sequence (P18089 1-450): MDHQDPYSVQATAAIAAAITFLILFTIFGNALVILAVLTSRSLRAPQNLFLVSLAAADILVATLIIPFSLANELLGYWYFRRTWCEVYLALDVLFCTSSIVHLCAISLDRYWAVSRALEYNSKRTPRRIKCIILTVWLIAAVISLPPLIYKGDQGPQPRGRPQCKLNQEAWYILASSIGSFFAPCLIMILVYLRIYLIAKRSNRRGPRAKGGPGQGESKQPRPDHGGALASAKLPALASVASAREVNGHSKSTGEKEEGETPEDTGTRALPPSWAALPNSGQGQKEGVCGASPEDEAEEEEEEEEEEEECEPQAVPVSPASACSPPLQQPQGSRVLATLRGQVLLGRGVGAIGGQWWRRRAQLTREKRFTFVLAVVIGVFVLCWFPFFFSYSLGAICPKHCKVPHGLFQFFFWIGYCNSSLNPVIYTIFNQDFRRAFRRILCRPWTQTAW
Procedure: To evaluate in radioligand binding assays the activity of compounds of the invention, human recombinant adrenergic α2B receptor expressed in Chinese hamster ovary (CHO) K1 cells (Uhlen, S. et al, Eur. J. Pharmacol. 343(1):93, 1998) in a modified Tris-HCl buffer (50 mM Tris-HCl, pH 7.4, 12.5 mM MgCl2, 1 mM EDTA, 0.2% BSA) was used. Compounds of the invention were incubated with 2.5 nM [3H]Rauwolscine for 60 min at 25° C. Non-specific binding was estimated in the presence of 10 μM Prazosin. Receptor proteins were filtered and washed, the filters were then counted to determine [3H]Rauwolscine specifically bound. Compounds were screened at 1 μM or lower, using 1% DMSO as vehicle. Compounds of the invention were tested in this biochemical assay and percent inhibition of specific binding was determined. Biochemical assay results are presented as the percent inhibition of specific binding in Tables B1A-B1D.

[3] = target: T3, human recombinant adrenergic α2A receptor (Homo sapiens, UniProt P08913); assay: Adrenergic α2A radioligand binding assay ([3H]MK-912); conditions: for inhibition at 1 µM: 1 μM compound; for inhibition at 1 µM / inhibition at 0.1 µM: read-out: Percentage inhibition of ligand binding, Adrenergic α2A; for inhibition at 0.1 µM / Percentage inhibition of ligand binding, Adrenergic α2A: 0.1 μM compound; for Percentage inhibition of ligand binding, Adrenergic α2A: 0.1 µM
T3 construct: expressed in transfected cells; host or cells: insect Sf9 cells
T3 sequence (P08913 1-465): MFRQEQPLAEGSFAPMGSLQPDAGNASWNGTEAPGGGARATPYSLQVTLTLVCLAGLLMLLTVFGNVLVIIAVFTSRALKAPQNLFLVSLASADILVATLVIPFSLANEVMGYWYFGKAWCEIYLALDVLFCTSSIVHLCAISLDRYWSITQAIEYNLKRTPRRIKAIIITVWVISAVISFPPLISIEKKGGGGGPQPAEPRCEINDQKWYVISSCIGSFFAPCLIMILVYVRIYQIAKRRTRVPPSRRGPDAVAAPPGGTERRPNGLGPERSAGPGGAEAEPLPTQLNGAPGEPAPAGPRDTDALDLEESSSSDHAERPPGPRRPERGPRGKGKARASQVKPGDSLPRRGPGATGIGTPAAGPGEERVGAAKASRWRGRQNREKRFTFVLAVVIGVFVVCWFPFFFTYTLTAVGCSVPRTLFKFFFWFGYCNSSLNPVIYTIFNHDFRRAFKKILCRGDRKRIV
Procedure: To evaluate in radioligand binding assays the activity of compounds of the invention, human recombinant adrenergic α2A receptor expressed in insect Sf9 cells (Uhlen, S. et al, J. Pharmacol. Exp. Ther. 271:1558, 1994) in a modified Tris-HCl buffer (50 mM Tris-HCl, pH 7.4, 12.5 mM MgCl2, 2 mM EDTA) was used. Compounds of invention were incubated with 1 nM [^3H]MK-912 for 60 min at 25° C. MK912 was (2S-trans)-1,3,4,5′,6,6′,7,12b-octahydro-1′,3′-dimethyl-spiro[2H-benzofuro[2,3-a]quinolizine-2,4′(1′H)-pyrimidin]-2′(3′H)-one hydrochloride Non-specific binding was estimated in the presence of 10 μM WB-4101 (2-(2,6-Dimethoxyphenoxyethyl)aminomethyl-1,4-benzodioxane hydrochloride). Receptor proteins were filtered and washed, the filters were then counted to determine [^3H]MK-912 specifically bound. Compounds were screened at 1 μM or lower, using 1% DMSO as vehicle. Compounds of the invention were tested in this biochemical assay and percent inhibition of specific binding was determined. Biochemical assay results are presented as the percent inhibition of specific binding in Tables B1A-B1D.

[4] = system: SH-SY5Y cells; assay: Cell viability assay (MTS reduction) against 4-Br-A23187 challenge; format: cell-based; conditions: compound 10 nM, 4-Br-A23187 (2 μM) for 24 h; for viability at 0.01 µM: Homo sapiens, SH-SY5Y, Control = 100, Vehicle = 0, read-out: Relative Cytoprotective capacity
Procedure: SH-SY5Y cells cultured in DMEM/F12 media supplemented with 10% FBS were seeded in 96-well microplates at 150,000 cells/cm^2. After 24 h, cells were depleted from FBS and kept in culture for 24 h before the experiment. A stock solution was prepared by dissolving the calcium ionophore 4-Br-A23187 (Calbiochem Cat. N^o 100107) in DMSO at 25 mM. Cells were then treated with 4-Br-A23187 (2 μM), hydrogen peroxide (300 μM) or the mitochondrial toxin rotenone (25 μM) in the presence of vehicle or Compound of the Invention for 24 h. Cell death was determined by measurements of LDH release according to the Cytotoxicity Detection KitPlus (Roche, Mannheim, Germany). Cell viability was determined by measuring the capacity of cells to metabolize MTS tetrazolium (MTS) according to the Cytotoxicity Detection KitPlus (Roche, Mannheim, Germany) and MTS reduction was assessed by the CellTiter 96® AQueous One Solution Cell Proliferation assay (Promega Corporation, Madison, Wis., USA). Compounds were screened at 10 nM, using DMSO as vehicle. Assay results for the experiments with Br-A23187 were presented as the MTS reduction capacity (cell viability) of untreated cells (control), 4-Br-A23187-treated cells (vehicle), and co-incubation of Br-A23187 with Compounds of the Invention treated cells and using […] (FCCP) at 10 μM for 30 min as a control. This assay assesses the ability of the test compounds to protect against cell death that was mediated by mitochondrial dysfunction. In the assay, the calcium ionophore 4-Br-A23187 was used to challenge the cells, causing calcium levels to rise in mitochondria, which leads to depolarization and cell death. Test compounds were assessed for their ability to prevent cell death in response to challenge with 4-Br-A23187.

[5] = target: T4, rat adrenergic α1B receptor obtained from Wistar Rat liver (Rattus norvegicus, UniProt P15823); assay: Adrenergic α1B radioligand binding assay ([3H]Prazosin); conditions: 0.1 μM compound; for inhibition at 0.1 µM: read-out: Percentage inhibition of ligand binding, Adrenergic α1B; for Percentage inhibition of ligand binding, Adrenergic α1B: 0.1 µM
T4 construct: rat adrenergic α1B receptor obtained from Wistar Rat liver; from tissue; host or cells: Wistar rat liver
T4 sequence (P15823 1-515): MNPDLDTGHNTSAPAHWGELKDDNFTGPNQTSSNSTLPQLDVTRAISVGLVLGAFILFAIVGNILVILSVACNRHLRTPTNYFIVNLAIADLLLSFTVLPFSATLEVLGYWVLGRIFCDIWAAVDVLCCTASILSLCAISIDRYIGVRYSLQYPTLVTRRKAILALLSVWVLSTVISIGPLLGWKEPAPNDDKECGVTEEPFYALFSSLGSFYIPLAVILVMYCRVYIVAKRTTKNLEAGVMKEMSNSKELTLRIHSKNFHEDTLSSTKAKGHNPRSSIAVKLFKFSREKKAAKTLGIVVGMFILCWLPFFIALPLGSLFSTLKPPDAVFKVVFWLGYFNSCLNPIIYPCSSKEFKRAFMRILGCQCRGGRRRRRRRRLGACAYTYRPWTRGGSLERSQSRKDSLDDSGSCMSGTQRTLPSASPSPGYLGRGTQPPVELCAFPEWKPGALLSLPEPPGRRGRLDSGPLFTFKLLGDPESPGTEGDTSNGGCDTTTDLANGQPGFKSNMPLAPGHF
Procedure: To evaluate in radioligand binding assays the activity of compounds of the invention, rat adrenergic α1B receptor obtained from Wistar Rat liver (Garcia-S'ainz, J. et al, Biochem. Biophys. Res. Commun. 186:760, 1992; Michel, A. et al, Br. J. Pharmacol. 98:883, 1989) in a modified Tris-HCl buffer (50 mM Tris-HCl buffer, pH 7.4, 0.5 mM EDTA) was used. Compounds of the invention were incubated with 0.25 nM [^3H]Prazosin for 60 min at 25° C. Non-specific binding was estimated in the presence of 10 μM phentolamine. Receptor proteins were filtered and washed, the filters were then counted to determine [^3H]Prazosin specifically bound. Compounds were screened at 1 μM or lower, using 1% DMSO as vehicle. Compounds of the invention were tested in this biochemical assay and percent inhibition of specific binding was determined. Biochemical assay results are presented as the percent inhibition of specific binding in Tables B1A-B1D.

[6] = read-out: Percentage inhibition of ligand binding, Adrenergic α1D

Cc1cc2c3c(c1)c1c(n3CC(c3ccc(C)nc3)C2)CCN(C)C1 (stereo not shown) [B1]
inhibition at 1 µM [1, 6]: 28% | inhibition at 1 µM [2]: 47% | inhibition at 1 µM [3]: 15%

Cc1cc(C#Cc2ccncc2)c2[nH]c3c(c2c1)CN(C)CC3 [A5]
viability at 0.01 µM [4]: 28.8%

Cc1ccc2c(c1)c1c3n2CC(c2ccc(F)cc2)CC3(C)CN(C)C1 (stereo not shown) [D2]
viability at 0.01 µM [4]: 38.4%

Cc1ccc2c(c1)c1c(n2C)C(C)(CCc2ccccc2)CN(C)C1 (stereo not shown) [C44]
Relative Cytoprotective capacity ([4]; Control = 100, Vehicle = 0): −0.6342

Cc1cc2c3c(c1)c1c(n3CC2c2ccc(F)cc2)CCN(C)C1 (stereo not shown) [B2]
inhibition at 1 µM [1, 6]: 24% | inhibition at 1 µM [2]: 74% | inhibition at 1 µM [3]: 89%

Cc1cc(CC(O)c2ccncc2)c2c(c1)c1c(n2C)CCN(C)C1 (stereo not shown) [A44]
inhibition at 0.1 µM [5]: -3% | inhibition at 0.03 µM [2]: 31% | inhibition at 0.1 µM [3]: -5%

Cc1cc2c3c(c1)c1c(n3CC(c3ccc(F)cc3)C2)CCN(C)C1 (stereo not shown) [B3]
inhibition at 1 µM [1, 6]: 38% | inhibition at 1 µM [2]: 68% | inhibition at 1 µM [3]: 89%

Cc1ccc2c(c1)c1c3n2CC(c2ccncc2)OC(C)CC3(C)CN(C)C1 (stereo not shown) [D8]
viability at 0.01 µM [4]: 73.1%

CN1CCc2[nH]c3c(NCc4ccccc4)cccc3c2C1 [A3]
viability at 0.01 µM [4]: 35.1%

Cc1ccc2c(c1)c1c3n2CC(c2ccc(F)cc2)CCC3(C)CN(C)C1 (stereo not shown) [D7]
viability at 0.01 µM [4]: 72.1%

Cc1ccc(C2Cn3c4c(c5cccc2c53)CN(C)CC4)cn1 (stereo not shown) [B210]
inhibition at 0.1 µM [2]: 14%

Cc1cc(CC(O)c2ccncc2)c2[nH]c3c(c2c1)CN(C)CC3 (stereo not shown) [A43]
inhibition at 0.1 µM [5]: -1% | inhibition at 0.03 µM [2]: 26% | inhibition at 0.1 µM [3]: 7%

Cc1cc2c3c(c1)c1c(n3CC(C)(c3ccc(C)nc3)OC2C)CCN(C)C1 (stereo not shown) [B161]
inhibition at 0.1 µM ([1]; 0.1 μM compound, read-out: Percentage inhibition of ligand binding, Adrenergic α1D): 1% | Percentage inhibition of ligand binding, Adrenergic α1B [5]: 2% | Percentage inhibition of ligand binding, Adrenergic α2B [2]: 7% | Percentage inhibition of ligand binding, Adrenergic α2A [3]: 13%

Cc1cc2c3c(c1)c1c(n3CC(C)(c3ccc(C)nc3)OC2C)CCN(C)C1 (stereo not shown) [B164]
Percentage inhibition of ligand binding, Adrenergic α1D ([1]; 0.1 μM compound, 0.1 µM): 2% | Percentage inhibition of ligand binding, Adrenergic α1B [5]: 12% | Percentage inhibition of ligand binding, Adrenergic α2B [2]: 16% | Percentage inhibition of ligand binding, Adrenergic α2A [3]: 6%

Cc1cc2c(-c3ccccc3)cn3c4c(c(c1)c23)CN(C)CC4 [B211]
inhibition at 0.1 µM [2]: 82%
